ChEMBL document CHEMBL5356932, “Research and development of N,N'-diarylureas as anti-tumor agents” (RSC Med Chem, 2023)
Each block holds one compound with its values, some of them ahead of it.

Columns and labels:
[1] = molecular target: T1, Vascular endothelial growth factor receptor 2 (Homo sapiens, UniProt P35968); test: Inhibition of human VEGFR
Angiopoietin-1 receptor = Angiopoietin-1 receptor (Homo sapiens, UniProt Q02763); test: Inhibition of TIE2 (unknown origin)
EA.hy 926 = test: Antiproliferative activity against human EA.hy 926 cells assessed as reduction in cell viability incubated for 48 hrs by MTT assay; format: functional, cell-based; conditions: EA.hy 926, 48 h
MCF7 [2] = test: Cytotoxicity against human MCF7 cells assessed as reduction in cell viability incubated for 24 hrs by MTT assay; format: functional, cell-based; conditions: MCF7, 24 h
HepG2 = test: Cytotoxicity against human HepG2 cells assessed as reduction in cell viability incubated for 24 hrs by MTT assay; format: functional, cell-based; conditions: HepG2, 24 h
MCF7 [3] = test: Antiproliferative activity against human MCF7 cells assessed as cell growth inhibition; format: functional, cell-based
MDA-MB-231 = test: Antiproliferative activity against human MDA-MB-231 cells assessed as cell growth inhibition; format: functional, cell-based
HUVEC [4] = test: Anti-angiogenesis activity in HUVEC cells; format: functional, cell-based; conditions: Homo sapiens
[5] = molecular target: T1, Vascular endothelial growth factor receptor 2; test: Inhibition of VEGFR2 in HUVEC cells; format: cell-based
[6] = Inhibition of angiogenesis in HUVEC cells assessed as reduction in capillary tube formation after 6 hrs by phase contrast microscopy; format: functional, cell-based; conditions: Homo sapiens
HUVEC [7] = test: Antiproliferative activity against HUVEC cells assessed as reduction in cell viability measured after 48 hrs by MTT assay; format: functional, cell-based; conditions: Homo sapiens
NCI-H1975 = test: Antiproliferative activity against human NCI-H1975 cells assessed as reduction in cell viability measured after 48 hrs by MTT assay; format: functional, cell-based; conditions: NCI-H1975, 48 h
A549 = test: Antiproliferative activity against human A549 cells assessed as reduction in cell viability measured after 48 hrs by MTT assay; format: functional, cell-based; conditions: A549, 48 h
[8] = Cytotoxicity against HUVEC cells assessed as reduction in cell viability and measured after 24 hrs by MTT assay; format: toxicity, cell-based; conditions: human

T1 sequence (P35968 whole entry): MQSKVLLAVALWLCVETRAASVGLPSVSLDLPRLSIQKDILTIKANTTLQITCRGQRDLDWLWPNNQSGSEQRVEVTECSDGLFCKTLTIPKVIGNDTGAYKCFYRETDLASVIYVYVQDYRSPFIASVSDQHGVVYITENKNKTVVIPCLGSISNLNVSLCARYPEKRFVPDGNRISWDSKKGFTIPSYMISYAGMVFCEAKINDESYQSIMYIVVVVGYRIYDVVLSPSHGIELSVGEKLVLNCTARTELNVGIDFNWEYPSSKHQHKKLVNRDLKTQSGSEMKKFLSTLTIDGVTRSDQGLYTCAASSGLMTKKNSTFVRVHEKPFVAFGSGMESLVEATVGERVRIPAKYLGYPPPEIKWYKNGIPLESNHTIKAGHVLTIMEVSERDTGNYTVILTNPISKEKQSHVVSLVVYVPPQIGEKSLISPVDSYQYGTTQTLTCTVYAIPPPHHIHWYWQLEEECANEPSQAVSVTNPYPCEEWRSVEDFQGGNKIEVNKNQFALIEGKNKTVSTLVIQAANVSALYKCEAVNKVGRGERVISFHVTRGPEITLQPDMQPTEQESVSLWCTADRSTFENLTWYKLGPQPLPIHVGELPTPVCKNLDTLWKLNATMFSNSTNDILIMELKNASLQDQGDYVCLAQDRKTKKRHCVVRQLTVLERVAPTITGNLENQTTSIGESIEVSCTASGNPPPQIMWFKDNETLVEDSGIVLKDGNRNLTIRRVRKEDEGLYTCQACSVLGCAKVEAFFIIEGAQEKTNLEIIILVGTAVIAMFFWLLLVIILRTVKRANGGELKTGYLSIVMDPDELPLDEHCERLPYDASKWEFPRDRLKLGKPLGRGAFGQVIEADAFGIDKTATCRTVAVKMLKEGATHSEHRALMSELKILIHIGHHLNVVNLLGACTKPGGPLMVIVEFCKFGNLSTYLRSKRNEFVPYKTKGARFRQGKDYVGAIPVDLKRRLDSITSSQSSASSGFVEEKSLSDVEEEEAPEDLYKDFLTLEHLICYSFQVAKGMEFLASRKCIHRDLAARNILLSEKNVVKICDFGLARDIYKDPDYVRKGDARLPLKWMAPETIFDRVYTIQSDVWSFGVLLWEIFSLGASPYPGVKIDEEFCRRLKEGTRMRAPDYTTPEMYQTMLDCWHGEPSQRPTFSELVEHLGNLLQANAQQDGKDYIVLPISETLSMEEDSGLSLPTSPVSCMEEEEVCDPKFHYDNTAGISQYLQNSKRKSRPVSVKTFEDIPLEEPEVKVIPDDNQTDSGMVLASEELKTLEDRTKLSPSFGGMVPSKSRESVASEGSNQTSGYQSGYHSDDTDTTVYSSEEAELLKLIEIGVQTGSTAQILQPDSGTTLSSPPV
Chain of Angiopoietin-1 receptor (Q02763 whole entry): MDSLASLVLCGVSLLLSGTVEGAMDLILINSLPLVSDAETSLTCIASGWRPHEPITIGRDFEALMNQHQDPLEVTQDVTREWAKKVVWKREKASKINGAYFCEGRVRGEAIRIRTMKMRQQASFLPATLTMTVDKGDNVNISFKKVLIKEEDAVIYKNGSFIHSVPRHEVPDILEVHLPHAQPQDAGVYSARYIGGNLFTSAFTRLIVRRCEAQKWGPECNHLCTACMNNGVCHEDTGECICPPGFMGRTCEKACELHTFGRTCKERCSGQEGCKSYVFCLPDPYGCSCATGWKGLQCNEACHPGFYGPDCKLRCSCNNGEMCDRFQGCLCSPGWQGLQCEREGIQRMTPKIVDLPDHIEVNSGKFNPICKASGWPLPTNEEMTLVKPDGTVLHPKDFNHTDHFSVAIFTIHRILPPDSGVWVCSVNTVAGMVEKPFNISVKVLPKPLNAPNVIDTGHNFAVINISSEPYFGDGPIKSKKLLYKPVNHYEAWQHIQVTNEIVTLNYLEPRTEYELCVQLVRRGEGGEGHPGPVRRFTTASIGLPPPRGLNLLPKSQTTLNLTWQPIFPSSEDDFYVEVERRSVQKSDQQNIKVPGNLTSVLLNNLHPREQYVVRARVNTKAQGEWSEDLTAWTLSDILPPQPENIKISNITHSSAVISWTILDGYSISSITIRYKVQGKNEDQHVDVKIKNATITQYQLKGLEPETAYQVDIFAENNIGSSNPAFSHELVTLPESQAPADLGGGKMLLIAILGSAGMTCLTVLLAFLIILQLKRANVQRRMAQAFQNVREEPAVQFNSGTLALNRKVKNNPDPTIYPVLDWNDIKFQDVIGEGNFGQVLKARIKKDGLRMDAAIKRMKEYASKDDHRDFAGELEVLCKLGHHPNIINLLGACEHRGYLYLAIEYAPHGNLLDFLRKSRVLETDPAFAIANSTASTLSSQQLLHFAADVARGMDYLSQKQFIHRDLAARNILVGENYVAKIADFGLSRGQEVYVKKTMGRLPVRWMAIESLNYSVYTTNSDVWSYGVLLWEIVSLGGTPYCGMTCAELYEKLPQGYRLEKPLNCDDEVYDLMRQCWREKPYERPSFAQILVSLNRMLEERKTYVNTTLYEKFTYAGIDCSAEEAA

IC50 [1]: 3.5 µM | IC50 (Angiopoietin-1 receptor): 0.0069 µM
SMILES: COC(=O)Nc1nc2cc(Oc3ccc(NC(=O)Nc4cc(F)ccc4C(F)(F)F)cc3)ccc2[nH]1

SMILES: O=C(Nc1ccc(-c2cccc(NC(=O)C3CC3)n2)cc1)Nc1ccc(Cl)c(C(F)(F)F)c1
IC50 (EA.hy 926): 14.5 µM

SMILES: CSc1cccc(NC(=O)Nc2ccc(Oc3ccc4[nH]c(=O)c(=O)[nH]c4c3)cc2C)c1
IC50 (MCF7 [2]): 14 µM | IC50 (HepG2): 17 µM

IC50 (MCF7 [3]): 1.2 µM | IC50 (MDA-MB-231): 5 µM
SMILES: O=C(Nc1cccc(Sc2ccnc3ccsc23)c1)Nc1cccc(C(F)(F)F)c1

SMILES: CNC(=O)c1cc(Oc2ccc(NC(=O)Nc3ccc(Cl)c(C(F)(F)F)c3)cc2)ccn1 [SORAFENIB]
IC50 (HUVEC [4]): 73.2 µM

IC50 [5]: 73.2 µM | IC50 [6]: 5.3 µM
SMILES: Cc1nc(Nc2ccc(NC(=O)Nc3cccc(F)c3)cc2)c2nc(-c3ccccc3)sc2n1
IC50 (HUVEC [4]): 5.3 µM

IC50 (NCI-H1975): 1.4 µM | IC50 (A549): 7.61 µM
SMILES: O=C(Nc1ccc(OC(F)(F)F)cc1)Nc1ccc2nc(-c3ccccc3Cl)oc2c1
IC50 (HUVEC [7]): 8.46 µM

SMILES: O=C(Nc1ccc(-c2cccc(NC(=O)C3CC3)n2)cc1)Nc1cccc(C(F)(F)F)c1
IC50 (EA.hy 926): 16.1 µM

SMILES: Cc1nc(Nc2ccc(NC(=O)Nc3ccc(F)c(Cl)c3)cc2)c2nc(-c3ccc(OCCCN4CCN(C)CC4)cc3)oc2n1
IC50 at 24 h [8]: 12.4 µM
